Data taken from ChEMBL document CHEMBL3885861, “Open TG-GATES”.

Species: Rattus norvegicus
Assay: Open TG-GATES - Regimen: Daily Repeat
Format: toxicity, organism-based, Sprague-Dawley
Set-up: regimen Daily Repeat, gender Male, age 6 weeks
Settings: in vivo, po, 100 mg/kg, route gavage, dose level Low; for APTT / Bas / Eos / Fbg / Hb / Ht / Lym / MCH / MCHC / MCV / Mono / Neu / PT / Plat / RBC / Ret / WBC: tissue Blood; for KIDNEY_L / KIDNEY_R / KIDNEY_TOTAL: tissue Kidney; for LIVER: tissue Liver; for A/G / ALP / ALT / AST / BUN / CRE / Ca / Cl / DBIL / GLC / IP / K / LDH / Na / PL / RALB / TBIL / TC / TG / TP / gamma-GTP: tissue Plasma

With `Cc1nnc2n1-c1ccc(Cl)cc1C(c1ccccc1Cl)=NC2` [TRIAZOLAM] the TERMINAL_BW (72 h, time 3 day) was 218.3 g, the APTT (72 h, time 3 day) was 21.4 s and the Bas (72 h, time 3 day) was 0%. For the same compound, the Eos (72 h, time 3 day) was 1.2%, the Fbg (72 h, time 3 day) was 274.2 mg/dL and the Hb (72 h, time 3 day) was 13.8 g/dL. The Ht (72 h, time 3 day) was 41.1%, the Lym (72 h, time 3 day) was 74.2% and the MCH (72 h, time 3 day) was 21.5 pg. The MCHC (72 h, time 3 day) was 33.7%, the MCV (72 h, time 3 day) was 63.9 fL and the Mono (72 h, time 3 day) was 3.8%. The Neu (72 h, time 3 day) was 20%, the PT (72 h, time 3 day) was 13.2 s and the Plat (72 h, time 3 day) was 117.9 x10_4/uL. For the same compound, the RBC (72 h, time 3 day) was 643 x10_4/ul, the Ret (72 h, time 3 day) was 6.6% and the WBC (72 h, time 3 day) was 108.6 x10_2/uL. For the same compound, the KIDNEY_L (72 h, time 3 day) was 1 g, the KIDNEY_R (72 h, time 3 day) was 1 g and the KIDNEY_TOTAL (72 h, time 3 day) was 1.9 g. For the same compound, the LIVER (72 h, time 3 day) was 10.3 g, the A/G (72 h, time 3 day) was 0.9 and the ALP (72 h, time 3 day) was 1550.6 IU/L. For the same compound, the ALT (72 h, time 3 day) was 53.8 IU/L, the AST (72 h, time 3 day) was 79 IU/L and the BUN (72 h, time 3 day) was 14.2 mg/dL. The CRE (72 h, time 3 day) was 0.2 mg/dL, the Ca (72 h, time 3 day) was 11.1 mg/dL and the Cl (72 h, time 3 day) was 104.6 meq/L. It also gave a DBIL (72 h, time 3 day) of 0.012 mg/dL, a GLC (72 h, time 3 day) of 166.2 mg/dL and an IP (72 h, time 3 day) of 8.1 mg/dL. The K (72 h, time 3 day) was 4 meq/L, the LDH (72 h, time 3 day) was 88.2 IU/L and the Na (72 h, time 3 day) was 141 meq/L. The PL (72 h, time 3 day) was 142.4 mg/dL, the RALB (72 h, time 3 day) was 2.6 g/dL and the TBIL (72 h, time 3 day) was 0.054 mg/dL. The TC (72 h, time 3 day) was 75.4 mg/dL, the TG (72 h, time 3 day) was 76 mg/dL and the TP (72 h, time 3 day) was 5.5 g/dL. The gamma-GTP (72 h, time 3 day) was 1 IU/L, the TERMINAL_BW ([…], time 7 day) was 251.1 g and the TERMINAL_BW ([…], time 14 day) was 311.7 g. For the same compound, the TERMINAL_BW ([…], time 28 day) was 393.2 g, the APTT ([…], time 7 day) was 20.5 s and the Bas ([…], time 7 day) was 0%. The Eos ([…], time 7 day) was 0.8%, the Fbg ([…], time 7 day) was 251.8 mg/dL and the Hb ([…], time 7 day) was 13.9 g/dL. For the same compound, the Ht ([…], time 7 day) was 41.6%, the Lym ([…], time 7 day) was 74.8% and the MCH ([…], time 7 day) was 20.9 pg. The MCHC ([…], time 7 day) was 33.5%, the MCV ([…], time 7 day) was 62.4 fL and the Mono ([…], time 7 day) was 2.2%. For the same compound, the Neu ([…], time 7 day) was 21.4%, the PT ([…], time 7 day) was 13 s and the Plat ([…], time 7 day) was 116.7 x10_4/uL. It also gave an RBC ([…], time 7 day) of 667 x10_4/ul, a Ret ([…], time 7 day) of 6.1% and a WBC ([…], time 7 day) of 109.2 x10_2/uL. It also gave an APTT ([…], time 14 day) of 17.9 s, a Bas ([…], time 14 day) of 0.8% and an Eos ([…], time 14 day) of 1%. For the same compound, the Fbg ([…], time 14 day) was 253.2 mg/dL, the Hb ([…], time 14 day) was 14.4 g/dL and the Ht ([…], time 14 day) was 43.7%. It also gave a Lym ([…], time 14 day) of 77.2%, an MCH ([…], time 14 day) of 20.2 pg and an MCHC ([…], time 14 day) of 32.9%. The MCV ([…], time 14 day) was 61.6 fL, the Mono ([…], time 14 day) was 2.4% and the Neu ([…], time 14 day) was 18.4%. It also gave a PT ([…], time 14 day) of 13.4 s, a Plat ([…], time 14 day) of 117.2 x10_4/uL and an RBC ([…], time 14 day) of 710.8 x10_4/ul. The Ret ([…], time 14 day) was 4.8%, the WBC ([…], time 14 day) was 98 x10_2/uL and the APTT ([…], time 28 day) was 17.1 s. For the same compound, the Bas ([…], time 28 day) was 0.2%, the Eos ([…], time 28 day) was 1.2% and the Fbg ([…], time 28 day) was 277.4 mg/dL. The Hb ([…], time 28 day) was 15.2 g/dL, the Ht ([…], time 28 day) was 45.2% and the Lym ([…], time 28 day) was 78.4%. It also gave an MCH ([…], time 28 day) of 19 pg, an MCHC ([…], time 28 day) of 33.6% and an MCV ([…], time 28 day) of 56.6 fL. For the same compound, the Mono ([…], time 28 day) was 1.6%, the Neu ([…], time 28 day) was 17.6% and the PT ([…], time 28 day) was 13.2 s. The Plat ([…], time 28 day) was 110.7 x10_4/uL, the RBC ([…], time 28 day) was 798 x10_4/ul and the Ret ([…], time 28 day) was 2.4%. The WBC ([…], time 28 day) was 93.4 x10_2/uL, the KIDNEY_L ([…], time 7 day) was 1.1 g and the KIDNEY_R ([…], time 7 day) was 1 g. It also gave a KIDNEY_TOTAL ([…], time 7 day) of 2.1 g, a KIDNEY_L ([…], time 14 day) of 1.2 g and a KIDNEY_R ([…], time 14 day) of 1.2 g. It also gave a KIDNEY_TOTAL ([…], time 14 day) of 2.4 g, a KIDNEY_L ([…], time 28 day) of 1.4 g and a KIDNEY_R ([…], time 28 day) of 1.4 g. For the same compound, the KIDNEY_TOTAL ([…], time 28 day) was 2.8 g, the LIVER ([…], time 7 day) was 11.9 g and the LIVER ([…], time 14 day) was 13.6 g. For the same compound, the LIVER ([…], time 28 day) was 15.5 g, the A/G ([…], time 7 day) was 0.9 and the ALP ([…], time 7 day) was 1700.8 IU/L. The ALT ([…], time 7 day) was 48.8 IU/L, the AST ([…], time 7 day) was 75.6 IU/L and the BUN ([…], time 7 day) was 16.6 mg/dL. The CRE ([…], time 7 day) was 0.2 mg/dL, the Ca ([…], time 7 day) was 10.9 mg/dL and the Cl ([…], time 7 day) was 105.2 meq/L. It also gave a DBIL ([…], time 7 day) of 0.012 mg/dL, a GLC ([…], time 7 day) of 192.4 mg/dL and an IP ([…], time 7 day) of 6.9 mg/dL. It also gave a K ([…], time 7 day) of 4.2 meq/L, an LDH ([…], time 7 day) of 77.4 IU/L and a Na ([…], time 7 day) of 141.4 meq/L. It also gave a PL ([…], time 7 day) of 157.4 mg/dL, an RALB ([…], time 7 day) of 2.6 g/dL and a TBIL ([…], time 7 day) of 0.036 mg/dL. For the same compound, the TC ([…], time 7 day) was 78.6 mg/dL, the TG ([…], time 7 day) was 104.8 mg/dL and the TP ([…], time 7 day) was 5.5 g/dL. For the same compound, the gamma-GTP ([…], time 7 day) was 1.4 IU/L, the A/G ([…], time 14 day) was 0.8 and the ALP ([…], time 14 day) was 1617 IU/L. For the same compound, the ALT ([…], time 14 day) was 40.2 IU/L, the AST ([…], time 14 day) was 72.2 IU/L and the BUN ([…], time 14 day) was 16.2 mg/dL. The CRE ([…], time 14 day) was 0.2 mg/dL, the Ca ([…], time 14 day) was 10.8 mg/dL and the Cl ([…], time 14 day) was 104.8 meq/L. For the same compound, the DBIL ([…], time 14 day) was 0.008 mg/dL, the GLC ([…], time 14 day) was 189.6 mg/dL and the IP ([…], time 14 day) was 7.5 mg/dL. For the same compound, the K ([…], time 14 day) was 3.8 meq/L, the LDH ([…], time 14 day) was 83.4 IU/L and the Na ([…], time 14 day) was 142.6 meq/L. The PL ([…], time 14 day) was 151.8 mg/dL, the RALB ([…], time 14 day) was 2.7 g/dL and the TBIL ([…], time 14 day) was 0.04 mg/dL. It also gave a TC ([…], time 14 day) of 75 mg/dL, a TG ([…], time 14 day) of 118.2 mg/dL and a TP ([…], time 14 day) of 5.8 g/dL. It also gave a gamma-GTP ([…], time 14 day) of 1 IU/L, an A/G ([…], time 28 day) of 0.8 and an ALP ([…], time 28 day) of 1207.4 IU/L. It also gave an ALT ([…], time 28 day) of 42 IU/L, an AST ([…], time 28 day) of 64.8 IU/L and a BUN ([…], time 28 day) of 15.2 mg/dL. For the same compound, the CRE ([…], time 28 day) was 0.2 mg/dL, the Ca ([…], time 28 day) was 10.7 mg/dL and the Cl ([…], time 28 day) was 105 meq/L. The DBIL ([…], time 28 day) was 0.01 mg/dL, the GLC ([…], time 28 day) was 178.8 mg/dL and the IP ([…], time 28 day) was 6.4 mg/dL. It also gave a K ([…], time 28 day) of 4.1 meq/L, an LDH ([…], time 28 day) of 67.2 IU/L and a Na ([…], time 28 day) of 143.6 meq/L. It also gave a PL ([…], time 28 day) of 142.6 mg/dL, an RALB ([…], time 28 day) of 2.7 g/dL and a TBIL ([…], time 28 day) of 0.054 mg/dL. It also gave a TC ([…], time 28 day) of 68.4 mg/dL, a TG ([…], time 28 day) of 125.4 mg/dL and a TP ([…], time 28 day) of 6.2 g/dL. It also gave a gamma-GTP ([…], time 28 day) of 0.8 IU/L.
